According to patent US20040229954A1, “Selective manipulation of triglyceride, HDL and LDL parameters with 6-(5-carboxy-5-methyl-hexyloxy)-2,2-dimethylhexanoic acid monocalcium salt” (priority 2003, published 2004):
Marks after values point to notes of the source that are not given here.

Test: Randomized, double-blind, placebo-controlled dose-response study of gemcabene in patients with HDL-C <35 mg/dL; percent change from baseline in serum lipids and apolipoproteins
Format: in vivo, human
Protocol: A randomized, double-blind, placebo-controlled, parallel group, dose-response, multicenter study was conducted. The study was conducted at 11 centers in the United States and one center in Canada. Institutional Review Board approval was obtained at each center and every patient was informed of the study, freely consented to participate and signed an informed consent document. Following a 6-week, single-blind placebo, dietary lead in period conducted according to National Cholesterol Education Program Step 1 Diet, eligible patients with HDL-C level <35 mg/dL (0.9 mmol/L) were stratified according to whether mean serum TG levels, calculated from measures at 2 and 4 weeks prior to randomization, were <200 mg/dL (2.3 mmol/L) or >200 mg/dL (2.3 mmol/L). Within each TG stratum, patients were randomized to receive either 150, 300, 600, or 900 mg of gemcabene or placebo daily once daily for 12 weeks.
Eligible patients were women of non-childbearing potential (naturally postmenopausal or surgically sterilized) or men 18 to 80 years of age with a baseline serum HDL-C levels <35 mg/dL. Patients were excluded if they had creatine kinase serum levels >3 times the upper limit of normal, a body mass index >35 kilogram/meter^2, uncontrolled hypertension defined as sitting diastolic blood pressure >95 mm Hg whether taking or not taking an acceptable antihypertensive medication, uncontrolled diabetes mellitus (Hemoglobin A1C>10%), hepatic dysfunction including asparate aminotransferase or alanine aminotransferase levels >2 times the upper limits of normal, renal dysfunction as defined by blood urea nitrogen or creatinine levels >2 times upper limits of normal or uncontrolled hypothyroidism (thyroid stimulating hormone >1.5 times the upper limits of normal). Also excluded were those with a prior history of known gall bladder disease or pancreatitis, a history of consuming >14 alcoholic drinks per week, or those with a known hypersensitivity to lipid-altering drugs. Patients who had myocardial infarction, severe or unstable angina pectoris, coronary artery bypass graft or any other cardiovascular event requiring hospitalization within the last 3 months were also excluded from the study. Patients were not permitted any other lipid-altering drugs during the course of the study and if on prestudy lipid-altering drug therapy, were required to undergo an additional 4-week washout period. Use of isotretinoin, insulin, warfarin, immunosuppressive agents and intermittent systemic steroids were also prohibited. Alpha-blockers, β-blockers, hormone replacement therapy and oral hypoglycemic agents were permitted provided that their use was stable for at least 3 months.
The primary efficacy parameter was percent change from baseline in serum HDL-C levels at the study subject's last visit. Other efficacy parameters included percent change from baseline in serum LDL-C, TG, apolipoproteins A-I, A-II, B, C-III, E, and non-HDL-C levels. Additionally, nuclear magnetic resonance (NMR) spectroscopy was used to assess VLDL, HDL and LDL particle sizes as well as the total concentration of LDL particles. For HDL-C, non-HDL-C, LDL-C, and TG levels, the baseline value was the mean plasma value of two measurements, one obtained 2 weeks prior to randomization and one obtained at randomization. For all other parameters, the baseline value was defined as the single measurement obtained at randomization.
All blood samples were collected following a 12-hour fast and analyzed by Medical Research Laboratories in Highland Heights, Ky. Blood samples for routine chemistry and hematology profiles were measured at screening, randomization and 4, 8, and 12 weeks following the start of study medication. Basic lipid profiles (HDL-C, LDL-C, and TG) were measured at screening, 2 and 4 weeks prior to starting study medication (during the baseline phase), at randomization, and at weeks 2, 4, 8 and 12 of the treatment phase. […]

[1] = patients with TG <200 mg/dL, 150 mg once daily for 12 weeks, mean ± SE
[2] = patients with TG <200 mg/dL, 150 mg once daily for 12 weeks, median (min, max)
[3] = patients with TG <200 mg/dL, 300 mg once daily for 12 weeks, mean ± SE
[4] = patients with TG <200 mg/dL, 300 mg once daily for 12 weeks, median (min, max)
[5] = patients with TG <200 mg/dL, 600 mg once daily for 12 weeks, mean ± SE
[6] = patients with TG <200 mg/dL, 600 mg once daily for 12 weeks, median (min, max)
[7] = patients with TG <200 mg/dL, 900 mg once daily for 12 weeks, mean ± SE
[8] = patients with TG <200 mg/dL, 900 mg once daily for 12 weeks, median (min, max)
[9] = patients with TG ≧200 mg/dL, 150 mg once daily for 12 weeks, mean ± SE
[10] = patients with TG ≧200 mg/dL, 150 mg once daily for 12 weeks, median (min, max)
[11] = patients with TG ≧200 mg/dL, 300 mg once daily for 12 weeks, mean ± SE
[12] = patients with TG ≧200 mg/dL, 300 mg once daily for 12 weeks, median (min, max)
[13] = patients with TG ≧200 mg/dL, 600 mg once daily for 12 weeks, mean ± SE
[14] = patients with TG ≧200 mg/dL, 600 mg once daily for 12 weeks, median (min, max)
[15] = patients with TG ≧200 mg/dL, 900 mg once daily for 12 weeks, mean ± SE
[16] = patients with TG ≧200 mg/dL, 900 mg once daily for 12 weeks, median (min, max)
[17] = patients with mean baseline TG≧2200 mg/dL (so in the source), 150 mg dose

CC(C)(CCCCOCCCCC(C)(C)C(=O)[O-])C(=O)[O-].[Ca+2] [gemcabene, 6-(5-carboxy-5-methyl-hexyloxy)-2,2-dimethylhexanoic acid monocalcium salt]
levels of apolipoprotein B (both TG strata, 600 and 900 mg doses): corresponding decreases | reduction of non-HDL-C levels (both TG strata, higher doses): up to 18% | Percent Change from Baseline at Last Visit, Apolipoprotein A-II [1]: 5.5 ± 2.6 % | Percent Change from Baseline at Last Visit, Apolipoprotein CIII [1]: −7.0 ± 9.2% | Percent Change from Baseline at Last Visit, HDL-C [1]: 6.2 ± 3.1% | Percent Change from Baseline at Last Visit, LDL-C [1]: −2.6 ± 4.4% | Percent Change from Baseline at Last Visit, NonHDL-C [1]: −2.5 ± 4.0% | Percent Change from Baseline at Last Visit, Apolipoprotein A-I [2]: 7.3 (−7, 40) % | Percent Change from Baseline at Last Visit, Apolipoprotein B [2]: −0.7 (−17, 13) % | Percent Change from Baseline at Last Visit, Apolipoprotein E [2]: −7.7 (−42, 15) % | Percent Change from Baseline at Last Visit, TG [2]: −0.4 (−33, 32) % | Percent Change from Baseline at Last Visit, Apolipoprotein A-II [3]: 3.3 ± 2.8% | Percent Change from Baseline at Last Visit, Apolipoprotein CIII [3]: −14.3 ± 10.5% | Percent Change from Baseline at Last Visit, HDL-C [3]: 5.3 ± 3.5% | Percent Change from Baseline at Last Visit, LDL-C [3]: −5.6 ± 5.2% | Percent Change from Baseline at Last Visit, NonHDL-C [3]: −11.6 ± 4.2 % | Percent Change from Baseline at Last Visit, Apolipoprotein A-I [4]: 1.3 (−11, 31) % | Percent Change from Baseline at Last Visit, Apolipoprotein B [4]: −11.7 (−33, 2) % | Percent Change from Baseline at Last Visit, TG [4]: −14.6 (−55, 18) % | Percent Change from Baseline at Last Visit, Apolipoprotein A-II [5]: 7.2 ± 2.6 % | Percent Change from Baseline at Last Visit, Apolipoprotein CIII [5]: 5.4 ± 9.0% | Percent Change from Baseline at Last Visit, HDL-C [5]: 0.5 ± 3.2% | Percent Change from Baseline at Last Visit, LDL-C [5]: −24.9 ± 4.6 % | Percent Change from Baseline at Last Visit, NonHDL-C [5]: −17.6 ± 3.8 % | Percent Change from Baseline at Last Visit, Apolipoprotein A-I [6]: 7.1 (−7, 89) % | Percent Change from Baseline at Last Visit, TG [6]: 6.4 (−45, 97) % | Percent Change from Baseline at Last Visit, Apolipoprotein A-II [7]: 6.5 ± 2.5 % | Percent Change from Baseline at Last Visit, Apolipoprotein CIII [7]: −9.5 ± 8.6% | Percent Change from Baseline at Last Visit, HDL-C [7]: 5.0 ± 3.2% | Percent Change from Baseline at Last Visit, LDL-C [7]: −15.2 ± 4.4 % | Percent Change from Baseline at Last Visit, NonHDL-C [7]: −17.9 ± 3.6 % | Percent Change from Baseline at Last Visit, Apolipoprotein A-I [8]: 5.5 (−11, 34) % | Percent Change from Baseline at Last Visit, Apolipoprotein B [8]: −15.7 (−38, 21) % | Percent Change from Baseline at Last Visit, TG [8]: −8.1 (−35, 29) % | Percent Change from Baseline at Last Visit, Apolipoprotein A-II [9]: 5.9 ± 2.7 % | Percent Change from Baseline at Last Visit, Apolipoprotein CIII [9]: −23.6 ± 5.7 % | Percent Change from Baseline at Last Visit, HDL-C [9]: 17.6 ± 3.8 % | Percent Change from Baseline at Last Visit, NonHDL-C [9]: −1.6 ± 3.6% | Percent Change from Baseline at Last Visit, Apolipoprotein B [10]: 0.0 (−29, 33) % | Percent Change from Baseline at Last Visit, Apolipoprotein E [10]: −20.0 (−52, 19) % | Percent Change from Baseline at Last Visit, LDL-C [10]: 16.4 (−26,255) % | Percent Change from Baseline at Last Visit, Apolipoprotein A-II [11]: 0.5 ± 2.6% | Percent Change from Baseline at Last Visit, Apolipoprotein CIII [11]: −30.9 ± 5.6 % | Percent Change from Baseline at Last Visit, HDL-C [11]: 12.3 ± 3.8% | Percent Change from Baseline at Last Visit, NonHDL-C [11]: −9.4 ± 3.5% | Percent Change from Baseline at Last Visit, Apolipoprotein B [12]: −6.5 (−30, 31) % | Percent Change from Baseline at Last Visit, Apolipoprotein E [12]: −37.4** % | Percent Change from Baseline at Last Visit, LDL-C [12]: 8.3 (−31, 252) % | Percent Change from Baseline at Last Visit, Apolipoprotein A-II [13]: −0.8 ± 3.0% | Percent Change from Baseline at Last Visit, Apolipoprotein CIII [13]: −6.4 ± 6.5% | Percent Change from Baseline at Last Visit, HDL-C [13]: −0.9 ± 4.1% | Percent Change from Baseline at Last Visit, NonHDL-C [13]: −10.9 ± 4.2% | Percent Change from Baseline at Last Visit, Apolipoprotein B [14]: −5.7 (−34, 54) % | Percent Change from Baseline at Last Visit, Apolipoprotein E [14]: −25.4 (−49, 18) % | Percent Change from Baseline at Last Visit, TG [14]: −12.7 (−59, 38) % | Percent Change from Baseline at Last Visit, Apolipoprotein A-II [15]: −4.8 ± 2.6% | Percent Change from Baseline at Last Visit, Apolipoprotein CIII [15]: −10.8 ± 5.6% | Percent Change from Baseline at Last Visit, HDL-C [15]: −0.9 ± 3.8% | Percent Change from Baseline at Last Visit, NonHDL-C [15]: −16.3 ± 4.3 % | Percent Change from Baseline at Last Visit, Apolipoprotein E [16]: −11.7 (−59, 65) % | Percent Change from Baseline at Last Visit, TG [16]: −9.0 % | serum HDL-C or TG levels versus placebo (patients with mean baseline TG <200 mg/dL, any dose): no significant differences | decrease in apolipoprotein C-III [17]: 23% | increase in level of apolipoprotein A-I [17]: 6% | increase in level of apolipoprotein A-II [17]: 6% | increase in serum HDL-C levels [17]: 18% | reduction of TG serum levels [17]: 27% | reduction of TG serum levels (patients with mean baseline TG≧2200 mg/dL (so in the source), 300 mg dose): 39% | serum HDL-C or TG levels versus placebo (patients with mean baseline TG≧2200 mg/dL (so in the source), doses of 600 or 900 mg): No significant differences
